Results taken from patent publication US7547727B2, “Therapeutic cyclopentane derivatives” (Allergan, Inc., priority 2006, dated 2009).

Tests used:
human EP2 receptors = target: T1, human EP2 receptors (Homo sapiens, UniProt P43116); experiment: Competition radioligand binding, EP2; settings: HEK 293 cells stably expressing human EP2 receptors, [3H]PGE2
T1 construct: expressed in transfected cells; host or cells: HEK 293 (membranes or whole cells)
Method: Competition binding experiments were performed in a medium containing Hank's balanced salt solution, Hepes 20 mM, pH 7.3, membranes (˜60 μg protein) or 2×10^5 cells from HEK 293 cells stably expressing human EP2 receptors, [^3H]PGE2 (10 nM) and various concentrations of test compounds in a total volume of 300 μl. Reaction mixtures were incubated at 23° C. for 60 min, and were filtered over Whatman GF/B filters under vacuum. Filters were washed three times with 5 ml ice-cold buffer containing 50 mM Tris/HCl (pH 7.3). Non-specific binding was estimated in the presence of excess unlabeled PGE2 (10 μM). Binding data fitted to the binding model for a single class of binding sites, using nonlinear regression analysis. IC50 values thus obtained were converted to Ki using the equation of Ki=(IC50/(1+[L]/KD) where [L] represents PGE2 concentration (10 nM) and KD the dissociation constant for [^3H]PGE2 at human EP2 receptors (40 nM). […]
The cell homogenate was centrifuged at 19000 r.p.m. for 20 min at 4° C. using a Beckman Ti-60 rotor. The resultant pellet was resuspended in TME buffer to give a final 1 mg/ml protein concentration, as determined by Biorad assay. […]
[^3H-] […] 17-phenyl PGF2α and non-specific binding determined with 10^−5M of unlabeled PGE2, or 17-phenyl PGF2α, according to receptor subtype studied.

EP4 receptors = target: T2, EP4 receptors (Homo sapiens, UniProt P35408); experiment: Radioligand binding, EP4; settings: HEK-293 cells stably expressing EP4 receptors, [3H]PGE2
T2 construct: expressed in transfected cells; host or cells: HEK-293 (plasma membrane fraction)
T2 sequence (P35408 whole entry): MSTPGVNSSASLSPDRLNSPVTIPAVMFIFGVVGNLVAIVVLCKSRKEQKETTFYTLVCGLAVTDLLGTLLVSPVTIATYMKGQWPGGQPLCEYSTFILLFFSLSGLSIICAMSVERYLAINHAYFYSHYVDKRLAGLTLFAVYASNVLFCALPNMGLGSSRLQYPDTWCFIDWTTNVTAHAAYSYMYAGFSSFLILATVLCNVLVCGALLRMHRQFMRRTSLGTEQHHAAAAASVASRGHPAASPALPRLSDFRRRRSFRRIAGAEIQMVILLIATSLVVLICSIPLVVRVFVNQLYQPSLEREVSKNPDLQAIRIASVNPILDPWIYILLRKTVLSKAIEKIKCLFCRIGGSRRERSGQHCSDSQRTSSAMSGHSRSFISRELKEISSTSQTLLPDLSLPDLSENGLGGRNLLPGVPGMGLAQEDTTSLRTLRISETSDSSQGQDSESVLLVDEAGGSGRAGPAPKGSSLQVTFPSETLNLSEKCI
Method: HEK-293 cells stably expressing the human or feline FP receptor, or EP1, EP2, or EP4 receptors were washed with TME buffer, scraped from the bottom of the flasks, and homogenized for 30 sec using a Brinkman PT 10/35 polytron. TME buffer was added to achieve a final 40 ml volume in the centrifuge tubes (the composition of TME is 100 mM TRIS base, 20 mM MgCl2, […]; 10N HCl is added to achieve a pH of 7.4).
The cell homogenate was centrifuged at 19000 r.p.m. for 20 min at 4° C. using a Beckman Ti-60 rotor. The resultant pellet was resuspended in TME buffer to give a final 1 mg/ml protein concentration, as determined by Biorad assay. Radioligand binding competition assays vs. [^3H-]17-phenyl PGF2α (5 nM) were performed in a 100 μl volume for 60 min. Binding reactions were started by adding plasma membrane fraction. The reaction was terminated by the addition of 4 ml ice-cold TRIS-HCl buffer and rapid filtration through glass fiber GF/B filters using a Brandel cell harvester. The filters were washed 3 times with ice-cold buffer and oven dried for one hour.
[^3H-] PGE2 (specific activity 180 Ci mmol) was used as the radioligand for EP receptors. [^3H] 17-phenyl PGF2α was employed for FP receptor binding studies. […] 17-phenyl PGF2α and non-specific binding determined with 10^−5M of unlabeled PGE2, or 17-phenyl PGF2α, according to receptor subtype studied.

hFP = target: T3, hFP (Homo sapiens, UniProt P43088); experiment: FLIPR calcium signal, FP; type: cell-based; settings: HEK-293(EBNA) cells
T3 construct: expressed in transfected cells; host or cells: HEK-293(EBNA)
T3 sequence (P43088 whole entry): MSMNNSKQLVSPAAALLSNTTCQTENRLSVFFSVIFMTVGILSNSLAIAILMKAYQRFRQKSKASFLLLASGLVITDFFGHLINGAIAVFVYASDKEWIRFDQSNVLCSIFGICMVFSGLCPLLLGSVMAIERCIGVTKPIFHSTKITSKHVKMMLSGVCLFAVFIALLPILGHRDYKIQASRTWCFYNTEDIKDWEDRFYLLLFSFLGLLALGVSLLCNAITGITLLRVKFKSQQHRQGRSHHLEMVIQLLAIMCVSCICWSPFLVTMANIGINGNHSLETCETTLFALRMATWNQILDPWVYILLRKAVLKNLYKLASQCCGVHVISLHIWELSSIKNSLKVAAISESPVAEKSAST
Method: (§1) HEK-293(EBNA) cells, stably expressing one type or subtype of recombinant human prostaglandin receptors (prostaglandin receptors expressed: hDP/Gqs5; hEP1; hEP2/Gqs5; hEP3A/Gqi5; hEP4/Gqs5; hFP; hIP; hTP), were cultured in 100 mm culture dishes in high-glucose DMEM medium containing 10% fetal bovine serum, 2 mM I-glutamine, 250 μg/ml geneticin (G418) and 200 μg/ml hygromycin B as selection markers, and 100 units/ml penicillin G, 100 μg/ml streptomycin and 0.25 μg/ml amphotericin B.
(§2) Cells were seeded at a density of 5×10^4 cells per well in Biocoat® Poly-D-lysine-coated black-wall, clear-bottom 96-well plates (Becton-Dickinson) and allowed to attach overnight in an incubator at 37° C. Cells were then washed two times with HBSS-HEPES buffer (Hanks Balanced Salt Solution without bicarbonate and phenol red, 20 mM HEPES, pH 7.4) using a Denley Cellwash plate washer (Labsystems). […]
(§3) Cells were excited with an Argon laser at 488 nm, and emission was measured through a 510-570 nm bandwidth emission filter (FLIPR™, Molecular Devices, Sunnyvale, Calif.). […] The peak increase in fluorescence intensity was recorded for each well. […] The peak fluorescence change in each drug-containing well was then expressed relative to the controls. […]

hEP1 = target: T4, hEP1 (Homo sapiens, UniProt P34995); experiment: FLIPR calcium signal, EP1; type: cell-based; settings: HEK-293(EBNA) cells
T4 construct: expressed in transfected cells; host or cells: HEK-293(EBNA)
T4 sequence (P34995 1-402): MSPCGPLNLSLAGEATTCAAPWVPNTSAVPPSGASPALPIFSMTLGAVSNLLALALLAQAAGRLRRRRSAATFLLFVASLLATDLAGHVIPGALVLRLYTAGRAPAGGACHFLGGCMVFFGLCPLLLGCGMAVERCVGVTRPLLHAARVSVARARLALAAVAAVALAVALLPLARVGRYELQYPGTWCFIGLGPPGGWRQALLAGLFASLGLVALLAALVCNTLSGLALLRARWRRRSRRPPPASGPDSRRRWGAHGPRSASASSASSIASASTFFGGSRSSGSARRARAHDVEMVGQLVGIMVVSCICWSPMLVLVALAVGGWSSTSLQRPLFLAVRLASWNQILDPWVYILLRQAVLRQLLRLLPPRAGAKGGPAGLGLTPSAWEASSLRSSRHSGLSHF
Method: as §1, §2, §3

hEP2/Gqs5 = target: T5, hEP2/Gqs5 (Homo sapiens, UniProt P43116); experiment: FLIPR calcium signal, EP2; type: cell-based; settings: HEK-293(EBNA) cells, read-out: Ca2+ Signal-EC50(nM) EP2
T5 construct: expressed in transfected cells; host or cells: HEK-293(EBNA)
T5 sequence (P43116 whole entry): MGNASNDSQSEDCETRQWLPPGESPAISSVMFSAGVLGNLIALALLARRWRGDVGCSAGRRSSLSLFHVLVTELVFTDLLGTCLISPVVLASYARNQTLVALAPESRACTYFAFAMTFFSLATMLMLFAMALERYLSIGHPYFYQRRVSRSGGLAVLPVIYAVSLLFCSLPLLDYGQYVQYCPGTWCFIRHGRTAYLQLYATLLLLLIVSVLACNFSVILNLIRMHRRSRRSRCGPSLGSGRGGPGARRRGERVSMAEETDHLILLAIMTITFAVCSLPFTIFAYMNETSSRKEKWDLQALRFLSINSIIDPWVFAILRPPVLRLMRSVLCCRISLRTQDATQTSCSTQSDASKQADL
Method: as §1, §2, §3

hEP3A/Gqi5 = target: T6, hEP3A/Gqi5 (Homo sapiens, UniProt P43115); experiment: FLIPR calcium signal, EP3; type: cell-based; settings: HEK-293(EBNA) cells, read-out: Ca2+ Signal-EC50(nM) EP3
T6 construct: expressed in transfected cells; host or cells: HEK-293(EBNA)
T6 sequence (P43115 1-390): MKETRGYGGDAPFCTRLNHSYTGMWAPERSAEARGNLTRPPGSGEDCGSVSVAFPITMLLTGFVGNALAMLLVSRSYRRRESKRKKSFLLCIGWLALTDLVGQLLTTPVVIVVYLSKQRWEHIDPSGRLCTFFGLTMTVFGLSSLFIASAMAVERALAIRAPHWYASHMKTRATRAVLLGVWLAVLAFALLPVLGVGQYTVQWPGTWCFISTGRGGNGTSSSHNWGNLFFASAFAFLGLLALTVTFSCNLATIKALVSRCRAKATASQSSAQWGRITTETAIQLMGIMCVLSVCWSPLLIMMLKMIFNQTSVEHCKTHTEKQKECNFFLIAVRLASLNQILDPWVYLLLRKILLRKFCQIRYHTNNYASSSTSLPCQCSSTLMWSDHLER
Method: as §1, §2, §3

hEP4/Gqs5 = target: T7, hEP4/Gqs5 (Homo sapiens, UniProt P35408); experiment: FLIPR calcium signal, EP4; type: cell-based; settings: HEK-293(EBNA) cells
T7 construct: expressed in transfected cells; host or cells: HEK-293(EBNA)
T7 sequence (P35408 whole entry): as the sequence (P35408 whole entry) above
Method: as §1, §2, §3

hTP = target: T8, hTP (Homo sapiens, UniProt P21731); experiment: FLIPR calcium signal, TP; type: cell-based; settings: HEK-293(EBNA) cells
T8 construct: expressed in transfected cells; host or cells: HEK-293(EBNA)
T8 sequence (P21731 1-343): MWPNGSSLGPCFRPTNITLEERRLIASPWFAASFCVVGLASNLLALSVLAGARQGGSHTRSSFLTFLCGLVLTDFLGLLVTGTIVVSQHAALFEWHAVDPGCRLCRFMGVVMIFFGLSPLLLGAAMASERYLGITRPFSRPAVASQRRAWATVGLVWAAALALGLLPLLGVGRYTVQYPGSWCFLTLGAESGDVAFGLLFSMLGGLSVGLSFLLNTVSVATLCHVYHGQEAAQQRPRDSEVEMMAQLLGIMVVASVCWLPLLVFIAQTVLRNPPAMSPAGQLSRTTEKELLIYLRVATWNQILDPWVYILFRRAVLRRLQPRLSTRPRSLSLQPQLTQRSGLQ
Method: as §1, §2, §3

hIP = target: T9, hIP (Homo sapiens, UniProt P43119); experiment: FLIPR calcium signal, IP; type: cell-based; settings: HEK-293(EBNA) cells
T9 construct: expressed in transfected cells; host or cells: HEK-293(EBNA)
T9 sequence (P43119 whole entry): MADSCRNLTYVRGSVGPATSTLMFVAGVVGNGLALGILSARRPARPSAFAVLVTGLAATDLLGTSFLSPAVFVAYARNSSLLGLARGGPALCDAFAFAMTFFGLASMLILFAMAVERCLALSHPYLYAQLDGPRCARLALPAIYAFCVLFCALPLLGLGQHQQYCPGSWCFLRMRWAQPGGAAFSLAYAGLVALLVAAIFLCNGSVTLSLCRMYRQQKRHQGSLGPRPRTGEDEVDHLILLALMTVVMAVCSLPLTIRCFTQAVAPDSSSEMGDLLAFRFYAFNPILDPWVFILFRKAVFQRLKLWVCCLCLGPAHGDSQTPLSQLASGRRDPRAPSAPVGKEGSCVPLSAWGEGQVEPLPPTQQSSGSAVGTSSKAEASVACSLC
Method: as §1, §2, §3

hDP/Gqs5 = target: T10, hDP/Gqs5 (Homo sapiens, UniProt Q13258); experiment: FLIPR calcium signal, DP; type: cell-based; settings: HEK-293(EBNA) cells
T10 construct: expressed in transfected cells; host or cells: HEK-293(EBNA)
T10 sequence (Q13258 1-359): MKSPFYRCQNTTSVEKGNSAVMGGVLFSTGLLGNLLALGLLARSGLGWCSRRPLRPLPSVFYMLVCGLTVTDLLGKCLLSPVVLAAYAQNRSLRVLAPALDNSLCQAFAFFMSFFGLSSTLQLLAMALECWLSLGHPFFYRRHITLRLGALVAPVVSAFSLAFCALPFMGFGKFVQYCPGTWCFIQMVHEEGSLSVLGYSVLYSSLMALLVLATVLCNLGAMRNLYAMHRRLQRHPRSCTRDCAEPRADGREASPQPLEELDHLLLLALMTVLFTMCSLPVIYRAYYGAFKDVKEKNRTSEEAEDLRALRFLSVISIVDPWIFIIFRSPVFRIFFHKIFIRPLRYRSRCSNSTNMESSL
Method: as §1, §2, §3

T1 sequence (P43116 whole entry): as the sequence (P43116 whole entry) above

Ki (human EP2 receptors): 1250 nM
Ki (EP4 receptors): > 10000 nM
Ca2+ Signal-EC50(nM) FP (hFP): not active
Ca2+ Signal-EC50(nM) EP1 (hEP1): not active
EC50 (hEP2/Gqs5): 34 nM
EC50 (hEP3A/Gqi5): 10000 nM
Ca2+ Signal-EC50(nM) EP4 (hEP4/Gqs5): not active
Ca2+ Signal-EC50(nM) TP (hTP): not active
Ca2+ Signal-EC50(nM) IP (hIP): not active
Ca2+ Signal-EC50(nM) DP (hDP/Gqs5): not active
SMILES: CCCCCC(O)c1ccc([C@@H]2[C@@H](C/C=C\CCCC(=O)O)[C@H](C#N)C[C@H]2O)cc1 (stereo partly drawn) [(Z)-7-{(1S,2S,3R,5R)-5-Cyano-3-hydroxy-2-[4-(1-hydroxy-hexyl)-phenyl]-cyclopentyl}-hept-5-enoic acid]
